Source: patent US20090163515A1, “Compounds Which Bind to the Active Site of Protein Kinase Enzymes” (Biofocus Discovery Ltd., priority 2003, published 2009)

The compounds below were run on ROK (assay: ROK activity assay). Conditions: assays conducted at 1-100 μM.
Type: biochemical
Design: key: +: active; ++: more active; +++: very active

Row | SMILES | ROK activity
1 | NC(=O)c1ccc(-c2cncc(NCc3cccc(O)c3)c2)cc1 [4-[5-(3-Hydroxy-benzylamino)-pyridin-3-yl]-benzamide] | +++
2 | NC(=O)c1cccc(-c2cncc(NCc3cccc(OC(F)(F)F)c3)c2)c1 [3-[5-(3-Trifluoromethoxy-benzylamino)-pyridin-3-yl]-benzamide] | ++
3 | COc1ccc(CNc2cnc(-c3ccncc3)cn2)cc1 [(4-Methoxy-benzyl)-(5-pyridin-4-yl-pyrazin-2-yl)-amine] | +
4 | Clc1cccc(CNc2cnc(-c3ccncc3)cn2)c1 [(3-Chloro-benzyl)-(5-pyridin-4-yl-pyrazin-2-yl)-amine] | ++
5 | c1cc(-c2cncc(NCC3CCCN3)c2)ccn1 (stereo not drawn) [[3,4′]Bipyridinyl-5-yl-pyrrolidin-2-ylmethyl-amine] | +
6 | Fc1ccc(CNc2cncc(-c3ccncc3)c2)cc1F [[3,4′]Bipyridinyl-5-yl-(3,4-difluoro-benzyl)-amine] | ++
7 | NC(=O)c1cccc(-c2cncc(NCc3cc(O)cc(O)c3)c2)c1 [3-[5-(3,5-Dihydroxy-benzylamino)-pyridin-3-yl]-benzamide] | ++
8 | COc1ccc(-c2cnc(NCCc3ccncc3)cn2)cc1OC [[5-(3,4-Dimethoxy-phenyl)-pyrazin-2-yl]-(2-pyridin-4-yl-ethyl)-amine] | ++
9 | c1cc(CCNc2cnc(-c3ccc4c(c3)OCO4)cn2)ccn1 [(5-Benzo[1,3]dioxol-5-yl-pyrazin-2-yl)-(2-pyridin-4-yl-ethyl)-amine] | ++
10 | Oc1ccc(-c2cnc(NCCc3ccncc3)cn2)cc1 [4-[5-(2-Pyridin-4-yl-ethylamino)-pyrazin-2-yl]-phenol] | +
11 | Oc1cccc(CNc2cncc(-c3ccncc3Cl)c2)c1 [3-[(3′-Chloro-[3,4′]bipyridinyl-5-ylamino)-methyl]-phenol] | +++
12 | Clc1ccc(CNc2cncc(-c3ccncc3)c2)cc1 [[3,4′]Bipyridinyl-5-yl-(4-chloro-benzyl)-amine] | +++
13 | c1ccc2cc(CNc3cncc(-c4ccncc4)c3)ccc2c1 [[3,4′]Bipyridinyl-5-yl-naphthalen-2-ylmethyl-amine] | ++
14 | NC(=O)c1cccc(-c2cncc(NCc3ccc(O)cc3)c2)c1 [3-[5-(4-Hydroxy-benzylamino)-pyridin-3-yl]-benzamide] | ++
15 | NC(=O)c1cccc(-c2cncc(NCC3CCCCC3)c2)c1 [3-[5-(Cyclohexylmethyl-amino)-pyridin-3-yl]-benzamide] | +
16 | NC(=O)c1cccc(-c2cncc(NCC3CCCN3)c2)c1 (stereo not drawn) [3-{5-[(Pyrrolidin-2-ylmethyl)-amino]-pyridin-3-yl}-benzamide] | +
17 | COc1ccc(CNc2cncc(-c3ccncc3)c2)cc1 [[3,4′]Bipyridinyl-5-yl-(4-methoxy-benzyl)-amine] | +++
18 | Nc1ccc(-c2cncc(NCc3cccc(O)c3)c2)cc1 [3-{[5-(4-Amino-phenyl)-pyridin-3-ylamino]-methyl}-phenol] | +
19 | COc1ccc(-c2cnc(NCCc3ccncc3)cn2)cc1 [[5-(4-Methoxy-phenyl)-pyrazin-2-yl]-(2-pyridin-4-yl-ethyl)-amine] | ++
20 | Oc1ccc(-c2cncc(NCC3CCCN3)c2)cc1 (stereo not drawn) [4-{5-[(Pyrrolidin-2-ylmethyl)-amino]-pyridin-3-yl}-phenol] | ++
21 | Oc1cccc(CNc2cncc(-c3cc[nH]n3)c2)c1 [3-{[5-(1H-Pyrazol-3-yl)-pyridin-3-ylamino]-methyl}-phenol] | ++

Row | SMILES | ROK activity
22 | Oc1cccc(-c2cncc(Nc3ccc4ccccc4c3)c2)c1 [3-[5-(Naphthalen-2-ylamino)-pyridin-3-yl]-phenol] | +
23 | COc1cncc(-c2cncc(NCc3cccc(O)c3)c2)c1 [3-[(5′-Methoxy-[3,3′]bipyridinyl-5-ylamino)-methyl]-phenol] | +
24 | OCc1ccc(-c2cncc(NCc3cccc(O)c3)c2)cc1 [3-{[5-(4-Hydroxymethyl-phenyl)-pyridin-3-ylamino]-methyl}-phenol] | +
25 | CN(Cc1cccc(O)c1)c1cncc(-c2ccc(O)cc2)c1 [4-{5-[(3-hydroxy-benzyl)-methyl-amino]-pyridin-3-yl}-phenol] | +
26 | COc1ccc(Nc2cncc(-c3cccc(O)c3)c2)cc1 [3-[5-(4-Methoxy-phenylamino)-pyridin-3-yl]-phenol] | ++
27 | O=C(NCCO)c1cccc(-c2cnc(NCCc3ccncc3)cn2)c1 [N-(2-Hydroxy-ethyl)-3-[5-(2-pyridin-4-yl-ethylamino)-pyrazin-2-yl]-benzamide] | +
28 | CC(=O)c1ccc(-c2cnc(NCCc3ccncc3)cn2)s1 [1-{5-[5-(2-Pyridin-4-yl-ethylamino)-pyrazin-2-yl]-thiophen-2-yl}-ethanone] | +
29 | CN(C)CCNC(=O)c1cccc(-c2cncc(Nc3ccc4ccccc4c3)c2)c1 [N-(2-Dimethylamino-ethyl)-3-[5-(naphthalen-2-ylamino)-pyridin-3-yl]-benzamide] | +
30 | CC(=O)Nc1cccc(-c2cncc(NCc3cccc(O)c3)c2)c1 [N-{3-[5-(3-Hydroxy-benzylamino)-pyridin-3-yl]-phenyl}-acetamide] | +
31 | CC(Nc1cnc(-c2ccc(O)cc2)cn1)c1ccccc1 (stereo not drawn) [4-[5-(1-Phenyl-ethylamino)-pyrazin-2-yl]-phenol] | ++
32 | Oc1ccc(-c2cncc(NCc3ccc(Cl)cc3)c2)cc1 [4-[5-(4-Chloro-benzylamino)-pyridin-3-yl]-phenol] | ++
33 | OCc1ccc(-c2cnc(NCCc3ccncc3)cn2)cc1 [{4-[5-(2-Pyridin-4-yl-ethylamino)-pyrazin-2-yl]-phenyl}-methanol] | +
34 | Clc1cccc(Nc2cncc(-c3ccncc3)c2)c1 [[3,4′]Bipyridinyl-5-yl-(3-chloro-phenyl)-amine] | ++
35 | Oc1ccc(-c2cncc(NCc3ccoc3)c2)cc1 [4-{5-[(Furan-3-ylmethyl)-amino]-pyridin-3-yl}-phenol] | ++
36 | Oc1ccc(-c2cncc(NCc3cc(O)cc(O)c3)c2)cc1 [5-{[5-(4-Hydroxy-phenyl)-pyridin-3-ylamino]-methyl}-benzene-1,3-diol] | ++
37 | Oc1ccc(-c2cncc(NCc3ccc4ccccc4c3)c2)cc1 [4-{5-[(Naphthalen-2-ylmethyl)-amino]-pyridin-3-yl}-phenol] | +
38 | NC(=O)c1cccc(-c2cncc(NCc3ccc(Cl)c(Cl)c3)c2)c1 [3-[5-(3,4-Dichloro-benzylamino)-pyridin-3-yl]-benzamide] | ++
39 | Oc1cccc(-c2cncc(Nc3ccc(Cl)cc3)c2)c1 [3-[5-(4-Chloro-phenylamino)-pyridin-3-yl]-phenol] | +
40 | NS(=O)(=O)c1ccc(CNc2cnc(-c3ccncc3)cn2)cc1 [4-[(5-Pyridin-4-yl-pyrazin-2-ylamino)-methyl]-benzenesulfonamide] | ++
41 | COc1ccc(CNc2cncc(-c3ccc(O)cc3)c2)cc1OC [4-[5-(3,4-Dimethoxy-benzylamino)-pyridin-3-yl]-phenol] | +
42 | c1csc(CNc2cnc(-c3ccncc3)cn2)c1 [(5-Pyridin-4-yl-pyrazin-2-yl)-thiophen-2-ylmethyl-amine] | ++
